Results from patent US9481671B2, “Glucosylceramide synthase inhibition for the treatment of collapsing glomerulopathy and other glomerular disease” (Genzyme Corporation, priority 2008, dated 2016).

Test system: GM3
Assay: GM3 Elisa Assay (B16-FO cells)
Assay type: cell-based
Settings: 48 h, Table 3, 2 days with compound, read-out: IC50_uM_Mean
Protocol: B16-FO cells from ATCC (American Tissue Culture Collection) were grown in DMEM media (ATCC) with 10% Fetal Bovine Serum (Hyclone) and Pen/Step/Glutamine (Biowhittaker). 4000 cells per well were plated on collagen coated plates (BD) and allowed to attach for 6 hours in an incubator (37 degrees, 5% CO2). After 6 hours the compounds and controls were added to the wells, the plates mixed and returned to the incubator for 2 days. Day of assay the cells were fixed for 20 minutes with 1% formaldehyde and then washed with Tris Buffered Saline (TBS) 3 times, 150 μl of TBS was left in the wells and 50 μl of goat serum (Invitrogen) was added, the plates mixed and incubated for 1 hour at room temperature. The plates were flicked and the cells incubated with the monoclonal Antibody to GM3 (NeuAc) (Cosmo) for 45 minutes as room temperature. The plates were then washed 3 times with TBS, leaving 150 μl of TBS in the wells and Peroxidase AffinPure F (ab′) 2 frag Gt Anti-mouse IgM, μ Chain Specific (Jackson Immno Research) was added in 50 μl, the plates mixed and incubated for 45 minutes at room temperature. The plates were washed 3 times with TBS, flicked and blotted and 100 μl of Quantablu (Pierce) was added to the wells and incubated for 1 hour then read on a Fluorometer at Ex 325 and Em 420. The data was then analyzed using standard programs.

SMILES	IC50 [µM]
O=C(CCCc1nc(C2CC2)no1)N[C@H](CN1CCCC1)[C@H](O)c1ccc2c(c1)OCCO2 [Compound 648]	1 to 3
Cc1noc(CCCCC(=O)N[C@H](CN2CCCC2)[C@H](O)c2ccc3c(c2)OCCO3)n1 [Compound 649]	3 to 10
